# Key:
# [1] = tested on: influenza HA vaccine (influenza virus A/PR/8/34); design: species or system BALB/c mice; settings: mouse, in vivo, po
# [2] = tested on: pertussis-diphtheria-tetanus combined vaccine; design: species or system mice; settings: mouse, in vivo, po
# influenza HA vaccine = settings: mouse, in vivo
# measles-rubella vaccine = type: in vivo, mice; settings: blood; vaccine nasal twice at 3-week intervals; adjuvant oral before and after first inoculation
# Mycoplasma = type: in vivo, mice
# rotavirus vaccine = type: in vivo, mice; settings: blood
smiles,measurement,setting,value
"CCCCC[C@H](O)[C@H](O)/C=C/[C@H](O)CCCCCCCC(=O)O [9R,12R,13S-trihydroxy-10E-octadecenoic acid]",titer of anti-influenza virus IgA antibody in nasal irrigation liquids,[1],strongly enhanced
same,titer of anti-influenza virus IgG1 antibody in nasal irrigation liquids,[1],strongly enhanced
"CCCCC[C@H](O)[C@H](O)/C=C/[C@@H](O)CCCCCCCC(=O)O [9S,12R,13S-trihydroxy-10E-octadecenoic acid]",titer of anti-influenza virus IgA antibody in nasal irrigation liquids,[1],strongly enhanced
same,titer of anti-influenza virus IgG1 antibody in nasal irrigation liquids,[1],strongly enhanced
"CCCCC[C@H](O)[C@@H](O)/C=C/[C@@H](O)CCCCCCCC(=O)O [9S,12S,13S-trihydroxy-10E-octadecenoic acid]",level of anti-DT-IgA antibody in the nasal irrigation liquid,[2],11 ELISA units
same,level of anti-PT-IgA antibody in the nasal irrigation liquid,[2],14 ELISA units
same,level of anti-TT-IgA antibody in the nasal irrigation liquid,[2],11 ELISA units
same,level of anti-diphtheria toxoid (DT)-IgG antibody in the blood,[2],70 ELISA units
same,level of anti-pertussis toxin (PT)-IgG antibody in the blood,[2],442 ELISA units
same,level of anti-tetanus toxoid (TT)-IgG antibody in the blood,[2],75 ELISA units
same,titer of anti-influenza vaccine IgE antibody in the bronchoalveolar irrigation liquid,influenza HA vaccine,significantly decreased
same,titer of anti-influenza virus IgA antibody in nasal irrigation liquids,[1],strongly enhanced
same,titer of anti-influenza virus IgA antibody in the sera,[1],significantly increased
same,titer of anti-influenza virus IgG1 antibody in nasal irrigation liquids,[1],strongly enhanced
same,titer of anti-influenza virus IgG1 antibody in the sera,[1],significantly increased
same,ELISA titer of antibody produced for measles,measles-rubella vaccine,0.30
same,ELISA titer of antibody produced for rubella,measles-rubella vaccine,0.29
same,mice with lesions associated with Mycoplasma infection,"Mycoplasma; mouse, in vivo, po",3 of 10
same,average number of lesions,"Mycoplasma; vaccine intranasal three times at 2-week intervals, adjuvant oral before and after first inoculation",178
"CCCCC[C@H](O)[C@@H](O)/C=C/[C@@H](O)CCCCCCCC(=O)OC [methyl ester derivative, methyl 9S,12S,13S-trihydroxy-10E-octadecenoate]","ELISA titer of antibody produced, vaccine inoculated orally",rotavirus vaccine; rotavirus vaccine inoculated orally,0.27
same,"ELISA titer of antibody produced, nasal vaccine drop","rotavirus vaccine; rotavirus vaccine nasal twice at 3-week intervals, adjuvant oral before and after first inoculation",0.38
